Test results: the supplement of paper PMC10307832

How the values were obtained:
Test in all cases: relative viability (nuclei count vs DMSO), 5 days (fraction); higher = more cells survive
Vandetanib + Crizotinib = compound: COc1cc2/c(=N/c3ccc(Br)cc3F)nc[nH]c2cc1OCC1CCN(C)CC1 [Vandetanib] + C[C@@H](Oc1cc(-c2cnn(C3CCNCC3)c2)cnc1N)c1c(Cl)ccc(F)c1Cl [Crizotinib] (partner 1 µM)
In short: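 Nuclei were stained with Hoechst during a one-step fixation (final 0.05% Triton X-100, 1% formaldehyde, 1 ug/ml Hoechst) carried out 5 days after dosing, then counted on 4× images. The cells, lung cancer lines in 1536-well plates, had been dosed by pin tool the day after seeding with one drug alone or a fixed anchor-drug dose plus five library-drug doses (not always all listed) in √10 steps. Relative viability is the nuclei count in treated wells divided by that in vehicle wells, and each value is the median of duplicate plates.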

CUDC-101 = compound: C#Cc1cccc(Nc2ncnc3cc(OC)c(OCCCCCCC(=O)NO)cc23)c1 [CUDC-101]
In short: (§1)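 MetaXpress counted nuclei in 4× images of lung cancer cell lines that had been fixed, permeabilised and Hoechst-stained in one step. Before that, cells in 1536-well plates were kept overnight at 37 °C, pinned with five √10-spaced library-drug doses on vehicle-anchored plates, and cultured 5 days without medium change. Viability takes treated-well nuclei over vehicle-well nuclei and uses the median across plates. Plates were accepted only at control CV below 25% and at least one doubling.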

NVP-TAE684 = compound: COc1cc(N2CCC(N3CCN(C)CC3)CC2)ccc1Nc1ncc(Cl)c(Nc2ccccc2S(=O)(=O)C(C)C)n1 [NVP-TAE684]
In short: as §1

Vandetanib = compound: COc1cc2/c(=N/c3ccc(Br)cc3F)nc[nH]c2cc1OCC1CCN(C)CC1 [Vandetanib]
In short: as §1

Row | Cell Line | relative viability (Vandetanib + Crizotinib; first compound 0.02 µM) | relative viability (Vandetanib + Crizotinib; first compound 0.06325 µM) | relative viability (Vandetanib + Crizotinib; first compound 0.2 µM) | relative viability (Vandetanib + Crizotinib; first compound 0.6325 µM) | relative viability (Vandetanib + Crizotinib; first compound 2 µM) | relative viability (CUDC-101; 0.01 µM) | relative viability (CUDC-101; 0.03162 µM) | relative viability (CUDC-101; 0.1 µM) | relative viability (CUDC-101; 0.3162 µM) | relative viability (CUDC-101; 1 µM) | relative viability (NVP-TAE684; 0.2 µM) | relative viability (NVP-TAE684; 0.6325 µM) | relative viability (NVP-TAE684; 2 µM) | relative viability (Vandetanib; 0.02 µM) | relative viability (Vandetanib; 0.06325 µM) | relative viability (Vandetanib; 0.2 µM) | relative viability (Vandetanib; 0.6325 µM) | relative viability (Vandetanib; 2 µM)
1 | H3255 | 0.882 | 0.847 | 0.739 | 0.519 | 0.208 | 1 | 0.912 | 0.454 | 0.658 | 0.273 | 0.947 | 0.859 | 0.754 | 0.998 | 0.934 | 0.845 | 0.573 | 0.355
2 | HARA | 1.04 | 1.02 | 1.01 | 0.998 | 0.956 | 1.01 | 0.942 | 0.774 | 0.861 | 0.39 |  | 0.838 | 0.667 | 1.13 | 0.939 | 0.914 | 0.899 | 0.942
3 | HCC-15 | 0.837 | 0.793 | 0.855 | 0.826 | 0.821 | 0.969 | 0.989 | 1.01 | 1.11 | 0.897 | 0.913 | 0.973 | 0.808 | 1.01 | 0.919 | 0.982 | 1 | 1.03
4 | HCC-44 | 0.82 | 0.802 | 0.879 | 0.863 | 0.872 | 0.858 | 1.03 | 1.02 | 0.951 | 0.968 | 1.09 | 0.969 | 0.749 | 0.939 | 0.965 | 1.02 | 0.998 | 0.966
5 | HCC-78 | 0.318 | 0.352 | 0.328 | 0.331 | 0.257 | 1.01 | 0.918 | 0.954 | 0.809 | 0.416 | 0.824 | 0.658 | 0.495 | 1.02 | 0.841 | 0.958 | 0.974 | 0.853
6 | HCC-366 | 0.617 | 0.569 | 0.608 | 0.609 | 0.518 | 1.03 | 0.997 | 1.01 | 1.03 | 0.931 | 1.01 | 0.979 | 1.07 | 0.966 | 1.01 | 1.03 | 1.01 | 1.02
7 | HCC-827 | 0.983 | 0.93 | 0.851 | 0.242 | 0.192 | 1.08 | 0.709 | 0.247 | 0.198 | 0.192 | 1.09 | 1.02 | 1.04 | 1.04 | 1.02 | 1.01 | 0.31 | 0.186
8 | HOP-62 | 1.03 | 0.919 | 0.695 | 1.01 | 1.11 | 0.971 | 1.07 | 1.06 | 1 | 0.941 |  | 1 | 1.04 | 0.947 | 1.02 | 1.01 | 1.02 | 1.04
9 | IA-LM | 0.978 | 0.802 | 0.899 | 1.3 | 1.24 | 1.01 | 0.861 | 1.06 | 0.879 | 0.697 | 0.712 | 0.885 | 0.75 | 0.996 | 0.895 | 0.946 | 1.09 | 1.15
10 | LC-2-ad | 0.468 | 0.46 | 0.493 | 0.441 | 0.414 | 1.01 | 0.989 | 1.03 | 0.963 | 0.758 | 0.975 | 0.848 | 0.654 | 1.02 | 0.893 | 1.01 | 0.868 | 0.438
11 | NCI-H522 |  |  |  |  |  | 0.879 | 1.09 | 1.01 | 0.979 | 0.743 | 0.953 | 0.874 | 0.923 | 0.915 | 1.03 | 0.91 | 0.933 | 0.97
12 | NCI-H1395 |  |  |  |  |  | 1.05 | 0.883 | 0.952 | 0.974 | 0.648 | 1.01 | 0.777 | 0.977 | 0.909 | 0.954 | 0.856 | 0.938 | 0.795
13 | NCI-H1623 |  |  |  |  |  | 1.11 | 0.858 | 0.82 | 0.813 | 0.552 | 0.945 | 0.868 | 0.852 | 0.891 | 0.905 | 0.949 | 0.938 | 0.825
14 | NCI-H1648 |  |  |  |  |  | 1.15 | 0.59 | 0.758 | 0.741 | 0.376 | 0.715 | 0.713 | 0.363 | 0.862 | 0.824 | 0.745 | 0.915 | 0.561
15 | NCI-H1793 |  |  |  |  |  | 0.95 | 0.707 | 0.825 | 0.92 | 0.613 | 0.826 | 0.875 | 0.816 | 1.01 | 0.821 | 0.833 | 0.765 | 0.781
16 | NCI-H2342 |  |  |  |  |  | 1.06 | 0.931 | 0.973 | 0.996 | 0.923 | 0.917 | 0.849 | 0.647 | 1 | 0.964 | 0.953 | 0.95 | 0.949
17 | SW 900 |  |  |  |  |  | 0.927 | 0.881 | 0.803 | 0.878 | 0.624 | 0.96 | 0.754 | 0.776 | 0.898 | 0.887 | 0.65 | 0.93 | 0.775
